Source: ChEMBL document CHEMBL3297705, “Discovery of 5,6,7,8-tetrahydropyrido[3,4-d]pyrimidine inhibitors of Erk2” (Bioorg Med Chem Lett, 2014)

Columns and labels:
[1] = Plasma protein binding in human; assay type: ADME, cell-free; conditions: read-out: PPB (converted)
[2] = molecular target: T1, Mitogen-activated protein kinase 1 (Homo sapiens, UniProt P28482)
Description: Inhibition of ERK2 in human HepG2 cells assessed as P90RSK phosphorylation at Ser380 after 1.5 hrs by fluorescence assay

[3] = molecular target: T1, Mitogen-activated protein kinase 1; remark: listed apart in the source
Description: Inhibition of human recombinant N-terminal 6-His-tagged ERK2 expressed in Escherichia coli using S/T17 as substrate after 30 mins by spectrophotometry

[4] = molecular target: Cyclin-dependent kinase 2 (Homo sapiens, UniProt P24941)
Description: Inhibition of Cdk2 (unknown origin)

T1 sequence (P28482 whole entry): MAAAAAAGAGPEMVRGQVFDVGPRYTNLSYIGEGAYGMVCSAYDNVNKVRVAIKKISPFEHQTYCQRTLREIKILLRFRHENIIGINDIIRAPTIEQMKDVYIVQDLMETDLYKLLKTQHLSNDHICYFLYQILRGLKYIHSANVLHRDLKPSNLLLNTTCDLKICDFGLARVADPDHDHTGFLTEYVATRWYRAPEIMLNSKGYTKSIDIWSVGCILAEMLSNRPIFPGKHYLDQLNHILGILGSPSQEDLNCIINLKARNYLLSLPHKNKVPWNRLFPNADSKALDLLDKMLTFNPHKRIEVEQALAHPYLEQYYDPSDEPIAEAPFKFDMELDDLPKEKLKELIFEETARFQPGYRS

fraction unbound [1]	IC50 [2]	IC50 [3]	IC50 [4]	SMILES
0.006	23 nM	1 nM	9 nM	Cc1cc(Nc2ncc3c(n2)CN(C(=O)N[C@H](C)c2ccc(Cl)c(Cl)c2)CC3)ccn1
–	108 nM	2 nM	–	CC[C@H](O)[C@@H](NC(=O)N1CCc2cnc(NC(C)C)nc2C1)c1ccc(F)c(Cl)c1
–	144 nM	4 nM	–	CNC[C@@H](NC(=O)N1CCc2cnc(NC(C)C)nc2C1)c1ccc(F)c(Cl)c1
–	4380 nM	283 nM	–	CC(C)Nc1ncc2c(n1)CN(C(=O)NCc1ccccc1)CC2
–	7440 nM	93 nM	–	CC(=O)Nc1ncc2c(n1)CN(C(=O)N[C@H](CO)c1ccc(F)c(Cl)c1)CC2
–	7 nM	2 nM	2 nM	C[C@@H](NC(=O)N1CCc2cnc(N[C@H]3CCO[C@@H](CO)C3)nc2C1)c1ccc(Cl)c(Cl)c1
0.095	12 nM	1 nM	13 nM	C[C@@H](NC(=O)N1CCc2cnc(NC3CCOCC3)nc2C1)c1ccc(Cl)c(F)c1
–	21 nM	2 nM	69 nM	C[C@@H](NC(=O)N1CCc2cnc(NC3CCOCC3)nc2C1)c1ccc2cc[nH]c2c1
–	356 nM	2 nM	–	CC(C)Nc1ncc2c(n1)CN(C(=O)N[C@H](CN)c1ccc(F)c(Cl)c1)CC2
–	2610 nM	93 nM	–	CC(C)Nc1ncc2c(n1)CN(C(=O)NCc1cccc(F)c1)CC2
–	6620 nM	69 nM	–	CC(C)Nc1ncc2c(n1)CN(C(=O)NCc1ccc(F)cc1)CC2
0.081	14 nM	2 nM	71 nM	CC[C@@H](NC(=O)N1CCc2cnc(N[C@@H](C)CO)nc2C1)c1ccc(OC)c(Cl)c1
–	368 nM	11 nM	–	COC[C@@H](NC(=O)N1CCc2cnc(NC(C)C)nc2C1)c1ccc(F)c(Cl)c1
0.01	43 nM	1 nM	23 nM	C[C@@H](NC(=O)N1CCc2cnc(Nc3ccnn3C)nc2C1)c1ccc(Cl)c(Cl)c1
–	917 nM	7 nM	–	CC(C)Nc1ncc2c(n1)CN(C(=O)N[C@H](CNS(C)(=O)=O)c1ccc(F)c(Cl)c1)CC2
–	3010 nM	41 nM	–	CC(C)(C)Nc1ncc2c(n1)CN(C(=O)N[C@H](CO)c1ccc(F)c(Cl)c1)CC2
0.018	35 nM	1 nM	4 nM	C[C@@H](NC(=O)N1CCc2cnc(Nc3cnn(C)c3)nc2C1)c1ccc(Cl)c(Cl)c1
–	13200 nM	–	–	Cc1noc(C)c1Nc1ncc2c(n1)CN(C(=O)N[C@H](CO)c1ccc(F)c(Cl)c1)CC2
–	4 nM	1 nM	2 nM	CC[C@@H](NC(=O)N1CCc2cnc(NC3CCOCC3)nc2C1)c1ccc(C#N)c(Cl)c1
–	2140 nM	91 nM	–	CC(C)Nc1ncc2c(n1)CN(C(=O)NCc1ccc(Cl)cc1)CC2
0.226	51 nM	3 nM	13 nM	CC[C@@H](NC(=O)N1CCc2cnc(N[C@@H](C)CO)nc2C1)c1ccc(F)c(F)c1
0.103	17 nM	1 nM	11 nM	O=C(N[C@H](CO)c1ccc(Cl)c(Cl)c1)N1CCc2cnc(NC3CCOCC3)nc2C1
–	348 nM	3 nM	–	O=C(N[C@H](CO)c1ccc(F)c(Cl)c1)N1CCc2cnc(Nc3ccc(F)cc3)nc2C1
